{"source": "patent US11549147B2", "about": "“Treatment of atopic dermatitis with tradipitant” (VANDA PHARMACEUTICALS INC., priority 2017, dated 2023)", "format_in_all_cases": "in vivo, human", "key": {"[1]": {"assay": "Plasma levels of tradipitant at time of efficacy evaluation, PK analysis (Example 1)", "details": "100 mg qd", "procedure": "(§1) Baseline VAS scores are 76.1 and 77.2 for the tradipitant and placebo arms respectively. Efficacy is evaluated through a number of clinical research instruments. In addition, at the time of efficacy evaluation blood samples are collected for PK analysis in order to determine the plasma levels of tradipitant.\nThe average plasma concentrations of tradipitant across AM and PM-evaluated patients are between about 125 ng/mL and about 225 ng/mL. Patients evaluated in the afternoons (PM) (mean=about 20 hours post last administration) tend to have lower plasma concentrations of tradipitant than patients evaluated in the mornings (AM) (mean=about 15 hours post last administration). The average plasma concentration in the PM group is about 125 ng/mL, and the average plasma concentration in the AM group is about 225 ng/mL, the difference being largely attributable to the length of time post-administration."}, "[2]": {"system": "change of Worst Itch (VAS) in patients suffering from atopic dermatitis", "assay": "INADL variants modifying change of Worst Itch (VAS) in the treated cohort (Example 6, Table 12)", "text": "In addition, within the treated cohort described herein in Example 4, Table 6, the top loci identified as modifying change of Worst Itch (VAS) are variants located within INADL gene, shown below in Table 12."}, "[3]": {"system": "chronic pruritus in patients with atopic dermatitis", "assay": "Phase II proof of concept study VP-VLY-686-2101: tradipitant monotherapy vs placebo (Example 1)", "design": "key to VAS Worst change / VAS Worst change, Diff / VAS Average change / VAS Average change, Diff: VAS points in mm; VRS change / VRS change, Diff / FBI / FBI, Diff / CGIC / CGIC, Diff: scale not given here", "details": "for CGIC / DLQI change / FBI / SCORAD change / VAS Average change / VAS Worst change / VRS change: 100 mg qd evening; for CGIC, Diff / DLQI change, Diff / FBI, Diff / SCORAD change, Diff / VAS Average change, Diff / VAS Worst change, Diff / VRS change, Diff: Diff tradipitant vs placebo", "procedure": "A phase II proof of concept clinical study (Study ID VP-VLY-686-2101, “Proof of Concept of VLY-686 in Subjects With Treatment-Resistant Pruritus Associated With Atopic Dermatitis”) is conducted, investigating the safety and efficacy of tradipitant as a monotherapy in the treatment of chronic pruritus in patients with atopic dermatitis.\nIn the study, patients with a Visual Analog Scale (VAS) score of greater than 70 mm during one of the two days preceding inclusion into the study are randomized to receive orally either 100 mg of tradipitant (n=34) or placebo (n=35) once a day in the evening. In the tradipitant arm of the study, tradipitant is orally administered to patients in capsules with standard excipients in an amount of 100 mg in the evening. Clinical assessments are made after 3 or 4 weeks of daily treatment, or at both 3 weeks and 4 weeks, each assessment being done in the morning of the day after last treatment or in the afternoon of the day after last treatment. The tradipitant is administered in an immediate release form comprising tradipitant and pharmaceutically acceptable excipients in a capsule. The tradipitant particle size is approximately: D10: <5 um, D50: <10 um, and D90: <25 um, wherein Dio means that 10% of the particles are of the indicated mean particle size, D50 means that 50% of the particles are of the indicated mean particle size, and D90 means that 90% of the particles are of the indicated mean particle size.\nas §1"}}}
{"smiles": "O=C(c1ccccc1Cl)c1cccnc1-c1nnn(Cc2cc(C(F)(F)F)cc(C(F)(F)F)c2)c1-c1ccncc1", "note": "[Tradipitant]", "values": [{"measurement": "average plasma concentration", "setting": "[1]; AM group, mean about 15 hours post last administration", "value": "about 225 ng/mL"}, {"measurement": "plasma concentration at which patients tend to show greater efficacy", "setting": "[1]; PK-efficacy correlation", "value": "> 100", "unit": "ng/mL"}, {"measurement": "average plasma concentration", "setting": "[1]; PM group, mean about 20 hours post last administration", "value": "about 125 ng/mL"}, {"measurement": "Genotype associated with worse Worst Itch (VAS) response", "setting": "[2]; INADL SNP rs370530530, minor allele CT, major allele C, treated cohort", "value": "CTCT"}, {"measurement": "response as measured by change of Worst Itch (VAS), by genotype", "setting": "[2]; INADL rs11207834 TT genotype", "value": "itch scale improvement"}, {"measurement": "response as measured by change of Worst Itch (VAS), by genotype", "setting": "[2]; INADL rs11207834 minor allele, 85 mg bid", "value": "decreased response to treatment"}, {"measurement": "adverse event profile", "setting": "[3]; 100 mg qd", "value": "mild and similar to placebo"}, {"measurement": "tolerability", "setting": "[3]; 100 mg qd", "value": "well-tolerated"}, {"measurement": "endpoints corresponding to the underlying disease (SKINDEX, SCORAD objective, EASI and DLQI) vs placebo", "setting": "[3]; 100 mg qd, 4-week study", "value": "do not show any significant difference from placebo"}, {"measurement": "CGIC", "setting": "[3]; AM group, 3-4 weeks", "value": 2.46}, {"measurement": "DLQI change", "setting": "[3]; AM group, 3-4 weeks", "value": "−2.52"}, {"measurement": "FBI", "setting": "[3]; AM group, 3-4 weeks", "value": 1.47}, {"measurement": "SCORAD change", "setting": "[3]; AM group, 3-4 weeks", "value": "−9.58"}, {"measurement": "VAS Average change", "setting": "[3]; AM group, 3-4 weeks", "value": "−54"}, {"measurement": "VAS Worst change", "setting": "[3]; AM group, 3-4 weeks", "value": "−47.9"}, {"measurement": "VRS change", "setting": "[3]; AM group, 3-4 weeks", "value": "−1.46"}, {"measurement": "CGIC, Diff", "setting": "[3]; AM group", "value": "−1.15"}, {"measurement": "DLQI change, Diff", "setting": "[3]; AM group", "value": 0.35}, {"measurement": "FBI, Diff", "setting": "[3]; AM group", "value": 0.74}, {"measurement": "SCORAD change, Diff", "setting": "[3]; AM group", "value": "−5.23"}, {"measurement": "VAS Average change, Diff", "setting": "[3]; AM group", "value": "−23.7"}, {"measurement": "VAS Worst change, Diff", "setting": "[3]; AM group", "value": "−21.9"}, {"measurement": "VRS change, Diff", "setting": "[3]; AM group", "value": "−0.79"}, {"measurement": "CGIC, Diff", "setting": "[3]; PM group", "value": 0.19}, {"measurement": "DLQI change, Diff", "setting": "[3]; PM group", "value": "−1.89"}, {"measurement": "FBI, Diff", "setting": "[3]; PM group", "value": "−0.39"}, {"measurement": "SCORAD change, Diff", "setting": "[3]; PM group", "value": 0.88}, {"measurement": "VAS Average change, Diff", "setting": "[3]; PM group", "value": 5.82}, {"measurement": "VAS Worst change, Diff", "setting": "[3]; PM group", "value": 8.99}, {"measurement": "VRS change, Diff", "setting": "[3]; PM group", "value": "−0.13"}, {"measurement": "CGIC", "setting": "[3]; PM group, 3-4 weeks", "value": 2.47}, {"measurement": "DLQI change", "setting": "[3]; PM group, 3-4 weeks", "value": "−5.45"}, {"measurement": "FBI", "setting": "[3]; PM group, 3-4 weeks", "value": 1.01}, {"measurement": "SCORAD change", "setting": "[3]; PM group, 3-4 weeks", "value": "−6.29"}, {"measurement": "VAS Average change", "setting": "[3]; PM group, 3-4 weeks", "value": "−28.8"}, {"measurement": "VAS Worst change", "setting": "[3]; PM group, 3-4 weeks", "value": "−32.3"}, {"measurement": "VRS change", "setting": "[3]; PM group, 3-4 weeks", "value": "−1.29"}, {"measurement": "improvement from baseline on 100 mm unit Visual Analog Scale (VAS) for itch", "setting": "[3]; all patients, 100 mg once a day in the evening, 3-4 weeks", "value": 40.5, "unit": "mm"}]}
